From patent US7390822B2, “Substituted 4-phenyl-4-[1H-imidazol-2-yl]-piperidine derivatives for reducing ischaemic damage” (Janssen Pharmaceutica, N.V., priority 2001, dated 2008)
Values joined by “and” are separate entries in the source; they are usually repeats but may differ in a detail not shown here. Identical values can stand only once.

What was measured:
[1] = system: rat heart; experiment: Rat-Langendorff model (isolated perfused heart, ischaemia/reperfusion); conditions: individual rat hearts; for EDP: Degree of normalisation of EDP during reperfusion (amount above baseline EDP): 0 = recuperation to baseline EDP; for IC: Ischemic contracture: 4 μg/500 ml buffer, 20 min ischaemia; for Vfib: Number of ventricullar fibrillations during reperfusion: 40 min reperfusion
Procedure: A rat heart is rapidly dissected, attached by the aorta to a cannula and perfused with a physiological buffer (modified Krebs-Henseleit buffer: NaCl 118 mmol/l, KCl 4.7 mmol/l, MgSO4 1.2 mmol/l, KH2PO4 1.2 mmol/l, CaCl2 1.8 mmol/l, NaHCO3 23 mmol/l, glucose 11 mmol/l) without blood under 80 mmHg perfusion pressure. Oxygen is dissolved in the physiological buffer. The heart is paced atrially at 350 beats per minute. A balloon that can be optionally filled (adjustment preload) is inserted into the left ventricle. Diastolic pressure and the pressure developped are measured as well as the maximal rate of pressure development as a measure of contractility (inotropism) and the minimal rate of pressure decay as a measure of relaxation. Advantages of this model are: the heart is isolated and studied in controlled circumstances without interaction with other organs and the method is reasonably rapid and cheap. Disadvantages are: no blood perfusion, with only dissolved oxygen, therefore greater coronary flow rates with considerable vasodilatation of the coronary system; a closed system without metabolism and without interaction with other organs and a small animal model, relatively far away from clinical reality.
The study period of ischaemia is 20 minutes. The measurements after the study period of ischaemia (reperfusion phase) always last 40 minutes. Measurements before the study period of ischaemia last 30 minutes and are performed after stabilization. In the ischaemic preconditioning group the following is measured during these 30 minutes: 10 minutes baseline, 5 minutes ischaemia, 5 minutes reperfusion, 5 minutes ischaemia and 5 minutes reperfusion. In the group of the compounds according to the invention (4 μg/500 ml buffer solution) there is first 15 minutes baseline followed by 15 minutes treatment. Consequently, everything is time-matched.

[2] = system: sheep heart (left ventricle); experiment: Sheep model (normothermic myocardial ischaemia during extra corporal circulation); assay type: in vivo
Procedure: The model is a sheep anaesthetized with ketamine and isoflurane. The extra corporal circulation is connected by venous cannulation of both caval veins and arterial cannulation via the carotid. An additional cannula with flow meter in the right ventricle gives the flow rate over the coronary arteries. In addition to measurements of heart rate and arterial blood pressure, the left ventricle instantaneous pressure is measured as well as the left ventricle volumes via a conductance catheter. There is also a side-tubing on the arterial cannula of the artificial heart leading to the pulmonary artery. Via this route it is possible to modulate the left ventricle preload in a perfectly controlled manner in order to obtain load-independent measurements of the left ventricle contractility before and after the study period of ischaemia. Cardiac oxygen consumption was also measured as well as regional perfusion with the aid of coloured microspheres.
The study period of ischaemia was 30 minutes while the heart remained normothermic and was fully unloaded by the extra corporal circulation and venting of the ventricles. The control group was time-matched with the other groups. The ischaemic preconditioning group was subjected to 3 times 5 minutes of preconditioning ischaemia with 5 minute reperfusion intervals. In the three groups extra corporal circulation was started 30 minutes before the study period of ischaemia was imposed. The extra corporal circulation was stopped 40 minutes after the end of the study period of ischaemia. […] Only these four will be processed here. In the other groups, 7 experiments are always processed. Before each measurement of pressure-volume ratios in the left ventricle the system was switched to the right heart bypass model in which the venous flow is diverted into the extra corporal circulation via the caval veins and the blood is returned to the sheep via the pulmonary artery.

[3] = target: cloned human μ opioid receptor (Homo sapiens, UniProt P35372); experiment: Radioligand binding, competition with [3H]DAMGO; conditions: read-out: Agonist receptor binding (pIC50) mu (converted)
Sequence of cloned human μ opioid receptor (P35372 whole entry): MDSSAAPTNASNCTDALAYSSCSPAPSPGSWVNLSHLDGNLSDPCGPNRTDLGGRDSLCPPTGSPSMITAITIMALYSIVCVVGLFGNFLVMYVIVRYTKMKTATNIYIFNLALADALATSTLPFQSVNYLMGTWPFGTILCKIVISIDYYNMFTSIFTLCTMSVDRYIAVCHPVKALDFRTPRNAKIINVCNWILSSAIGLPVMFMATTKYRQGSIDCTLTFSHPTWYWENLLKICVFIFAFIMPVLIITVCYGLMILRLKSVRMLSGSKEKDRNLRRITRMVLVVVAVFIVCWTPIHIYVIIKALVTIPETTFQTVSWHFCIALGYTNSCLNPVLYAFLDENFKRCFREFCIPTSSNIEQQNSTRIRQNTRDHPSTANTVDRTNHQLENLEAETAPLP

Structure (SMILES) | melting point [°C] | Recup: % recuperation in developed pressure at the end of reperfusion [1] | EDP: Degree of normalisation of EDP during reperfusion (amount above baseline EDP) [1] | IC: Ischemic contracture [1] | Vfib: Number of ventricullar fibrillations during reperfusion [1] | further results
CCOC(=O)N1CCC(c2ccccc2)(c2nccn2Cc2ccccc2)CC1 [Compound 1, ethyl 4-phenyl-4-[1-(phenylmethyl)-1H-imidazol-2-yl]-1-piperidinecarboxylate] |  | 92% and 85% and 82% | 0 mmHg and +7 mmHg and +8 mmHg | 4 mmHg and 6 mmHg and 8 mmHg | 0 (2×) and 1 (short) | Tau (ventricular relaxation) ([2]; compared to control group 70 and 100 minutes after end of ischaemia): significantly lower; Preload recruitable stroke work (PRSW) ([2]; compared to control group after 70 and 100 minutes of reperfusion): significantly better; Cardiac flow after reperfusion ([2]; compared to control group, no significant difference): tendency for cardiac flow to be higher; Contractile efficacy (O2-consumption converted into PVA) ([2]; control group 32.8%, ischaemic preconditioning group 44.5%, p<0.001): 46.7%
CCCOC(=O)N1CCC(c2ccccc2)(c2nccn2Cc2ccccc2)CC1 [Compound 24] |  | 91% and 85% and 87% | 0 mmHg and +5 mmHg and +7 mmHg | 10 mmHg and 5 mmHg and 7 mmHg | 0 (2×) and 1 (short) | 
CC(C)OC(=O)N1CCC(c2ccccc2)(c2nccn2Cc2ccccc2)CC1 [Compound 25] |  | 79% and 85% and 75% | +6 mmHg (2×) and +10 mmHg | 5 mmHg and 7 mmHg (2×) | 0 and 1 (short) and 2 (short) | 
COC(=O)c1ccc(Cn2ccnc2C2(c3ccccc3)CCN(c3nc4ccccc4o3)CC2)cc1 [Compound 102] |  |  |  |  |  | IC50 [3]: > 1000 nM

Now from value to compound, other results behind:

melting point [°C] | Structure (SMILES) | Recup: % recuperation in developed pressure at the end of reperfusion [1] | EDP: Degree of normalisation of EDP during reperfusion (amount above baseline EDP) [1] | IC: Ischemic contracture [1] | Vfib: Number of ventricullar fibrillations during reperfusion [1] | further results
122.7 | O=C(c1ccccc1)N1CCC(c2ccccc2)(c2nccn2Cc2ccccc2)CC1 [Compound 2] |  |  |  |  | 
149.1 | CCOC(=O)N1CCC(c2ccccc2)(c2nccn2Cc2ccc(C(=O)OC)cc2)CC1 [Compound 3] |  |  |  |  | 
84.2 | CCN/C(=N/C#N)N1CCC(c2ccccc2)(c2nccn2Cc2ccccc2)CC1 [Compound 4] |  |  |  |  | 
251.6 | CCOC(=O)N1CCC(c2ccccc2)(c2nccn2Cc2ccc(C(=O)O)cc2)CC1 [Compound 8] |  |  |  |  | 
